According to paper PMC6599250, “Functional diversity of inhibitors tackling the differentiation blockage of MLL-rearranged leukemia” (Journal of Hematology & Oncology, 2019):

What was measured:
[1] = test system: P-TEFb/CDK9; conditions: read-out: On target Potency IC50; cited from earlier work
[2] = molecular target: MENIN-MLL interaction (Homo sapiens, UniProt O00255); assay: On target potency, MENIN-MLL interaction; assay type: biochemical
Text: Table 1 Inhibitors used in this study. Chemical structures of inhibitor used in this study tackling Menin-MLL1 interaction, BRD4/2/3, DOT1L, CDK9, and DHODH active sites, with respective biochemical IC50, rationale and current developmental status | column: BAY-155

[3] = test system: DHODH; set-up: method as in PMID 2743343; conditions: read-out: On target Potency IC50; cited from earlier work
[4] = test system: H3K79me2 on HOXA9 and MEIS1; conditions: clinical phase I study; cited from earlier work
[5] = test system: AML patients; conditions: cited from earlier work
[6] = test system: BRD4/2/3; conditions: read-out: On target Potency EC50; cited from earlier work

Chain of MENIN-MLL interaction (O00255 whole entry): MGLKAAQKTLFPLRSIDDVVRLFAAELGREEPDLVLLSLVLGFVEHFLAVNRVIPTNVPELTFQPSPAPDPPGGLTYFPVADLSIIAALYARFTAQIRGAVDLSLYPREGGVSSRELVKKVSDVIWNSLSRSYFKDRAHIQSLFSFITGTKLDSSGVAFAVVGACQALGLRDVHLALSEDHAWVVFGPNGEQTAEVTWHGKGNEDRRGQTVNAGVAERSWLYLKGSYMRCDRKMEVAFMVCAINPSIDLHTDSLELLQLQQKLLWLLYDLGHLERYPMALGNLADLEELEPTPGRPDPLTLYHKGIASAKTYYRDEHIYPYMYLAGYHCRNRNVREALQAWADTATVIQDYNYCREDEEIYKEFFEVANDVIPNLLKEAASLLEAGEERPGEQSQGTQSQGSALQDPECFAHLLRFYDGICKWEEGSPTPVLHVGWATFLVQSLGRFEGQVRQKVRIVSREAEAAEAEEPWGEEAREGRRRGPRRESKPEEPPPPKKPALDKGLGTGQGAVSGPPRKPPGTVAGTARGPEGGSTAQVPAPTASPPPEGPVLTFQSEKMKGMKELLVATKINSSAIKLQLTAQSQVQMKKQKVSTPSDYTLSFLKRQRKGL

SMILES: COc1cc(F)ccc1-c1cc(Nc2cc(CS(C)(=N)=O)ccn2)ncc1F (stereo not shown) [BAY 1251152]
- IC50 [1]: 3 nM

SMILES: Cc1c(CN2CCC3(CC2)CN(c2ncnc4sc(CC(F)(F)F)cc24)C3)ccc2c1cc(C#N)n2CC(N)=O [BAY-155]
- EC50 [2]: 8 nM

SMILES: CC(C)N(C[C@H]1O[C@@H](n2cnc3c(N)ncnc32)[C@H](O)[C@@H]1O)[C@H]1C[C@@H](CCc2nc3cc(C(C)(C)C)ccc3[nH]2)C1 [EPZ-5676]
- H3K79me2 on HOXA9 and MEIS1 in AML patients [4]: significant reduction of H3K79me2 on HOXA9 and MEIS1

SMILES: Cc1sc2c(c1C)C(c1ccc(Cl)cc1)=N[C@@H](CC(=O)Nc1ccc(O)cc1)c1nnc(C)n1-2 [OTX015]
- clinical activity in AML patients ([5]; AML patients harboring diverse driving mutations): partial blast clearance and recovery of platelets
- dose-limiting effect in patients ([5]; patients with incomplete bone marrow failure): severe thrombocytopenia as dose-limiting effect
- EC50 [6]: 10 to 19 nM
